In patent US7476692B2, “Pharmaceutical compositions of safingol and methods of using the same” (priority 2003, dated 2009):
Converted amounts (≈) assume the structure as drawn.

What was measured:
Fisher rats = settings: Group III: 4-HPR 61 mg/kg/d D1-5 continuous iv, safingol 0; 3 male rats
sphingosine kinase = settings: variously reported in the literature; cited from earlier work
protein kinase C (PKC) = settings: variously reported; acting at the regulatory subunit of PKCs; cited from earlier work
[1] = Solubility/miscibility studies of safingol in solvent systems
Method: (§1) The following solubility/miscibility studies were performed with safingol at various concentrations.

Method for physchem: as §1

CC1=C(/C=C/C(C)=C/C=C/C(C)=C/C(=O)Nc2ccc(O)cc2)C(C)(C)CCC1 [4-HPR, fenretinide]
Toxicity: din path (Fisher rats): din path: normal
Toxicity: dinical signs (Fisher rats): dinical signs: normal
Toxicity: necropsy: discoloration(lung) (Fisher rats): 3/3
Toxicity: necropsy: emaciation (Fisher rats): 1/3

CCCCCCCCCCCCCCC[C@H](O)[C@@H](N)CO [Safingol, (2S,3S)-2-amino-1,3-octadecanediol]
Inhibition of sphingosine kinase (sphingosine kinase): inhibitor
Inhibition of protein kinase C (PKC), including PKCζ (protein kinase C (PKC)): inhibitor
solubility (physchem; 50:50 ethanol:WFI with lactic acid, aqueous with cosolvent or surfactant or cyclodextrin): ~50000 µg/mL (≈ 166 mM)
solubility (physchem; 60:40 t-BuOH/WFI, aqueous with cosolvent or surfactant or cyclodextrin): 15700 µg/mL (≈ 52 mM)
solubility (physchem; DMAC, organic solvent or mixture): 6600 to 7400 µg/mL (≈ 21.9 to 24.5 mM)
solubility (physchem; Diluent 12, organic solvent or mixture): 7220 µg/mL (≈ 23.9 mM)
solubility (physchem; PEG 300, organic solvent or mixture): 1010 to 1060 µg/mL (≈ 3.35 to 3.52 mM)
solubility (physchem; ethanol, organic solvent or mixture): 7500 to 8200 µg/mL (≈ 24.9 to 27.2 mM)
solubility (physchem; lactic acid in WFI with 5 mg/mL mannitol, aqueous buffer): 10000 µg/mL (≈ 33.2 mM)
solubility (physchem; lactic acid/WFI, aqueous buffer): > 10000 µg/mL
solubility (physchem; lactic acid/ethanol, organic solvent or mixture): ~20000 µg/mL (≈ 66.3 mM)
solubility (physchem; propionic acid/WFI, aqueous buffer): ≥ 5000 µg/mL
solubility (physchem; propylene glycol, organic solvent or mixture): 1060 to 1350 µg/mL (≈ 3.52 to 4.48 mM)
solubility (physchem; t-butanol, organic solvent or mixture): > 25000 µg/mL
Precipitate at 2° C. to 8° C. ([1]; 50:50 Ethanol:WFI with lactic acid): precipitate formation
Solubility (Result) ([1]; Castor oil): not soluble
Solubility (Result) ([1]; Citric acid/WFI): not soluble
Solubility (Result) ([1]; DMSO): not soluble
Solubility (Result) ([1]; HC1/WFI): not soluble
Solubility (Result) ([1]; HCl/Ethanol): not soluble
Precipitate at 2° C. to 8° C. ([1]; Lactic acid in 2% EPL in WFI): no precipitate
Solubility (Result) ([1]; Lactic acid in 2% EPL in WFI): solubility similar to lactic without EPL
Precipitate at 2° C. to 8° C. ([1]; Lactic acid/Ethanol): precipitate formation
Precipitate at 2° C. to 8° C. ([1]; Lactic acid/WFI): precipitate formation
Solubility (Result) ([1]; Maleic acid/WFI): not soluble
Solubility (Result) ([1]; Malic acid/WFI): not soluble
Solubility (Result) ([1]; Methanesulfonic acid/Ethanol): not soluble
Solubility (Result) ([1]; Methanesulfonic acid/WFI): not soluble, but the appearance of the safingol changed,
Solubility (Result) ([1]; Neobee oil): Not soluble
Temperature at which later found to be soluble ([1]; Neobee oil): ~80 °C
Solubility (Result) ([1]; Pluronic F-68/WFI): not soluble
Precipitate at 2° C. to 8° C. ([1]; Propionic acid/WFI): precipitate formation
Solubility (Result) ([1]; Safflower oil, attempted: 0.5 mg/mL): Not soluble (attempted: 0.5 mg/mL)
Solubility (Result) ([1]; Sesame oil, attempted: 0.5 mg/mL): Not soluble (attempted: 0.5 mg/mL)
Solubility (Result) ([1]; Sodium Lactate/WFI): not soluble
Solubility (Result) ([1]; Soybean oil): Not soluble
Temperature at which later found to be soluble ([1]; Soybean oil): ~80 °C
Solubility (Result) ([1]; Tartaric acid/WFI): not soluble
Solubility (Result) ([1]; Tricaprylin, attempted: 0.5 mg/mL): Not soluble (attempted: 0.5 mg/mL)
Solubility (Result) ([1]; Tween-80): not soluble
Solubility (Result) ([1]; Valium solvent, attempted: 0.5 mg/mL): Not soluble (attempted: 0.5 mg/mL)
Solubility (Result) ([1]; Vitamin E (α-tocopherol)): not soluble
Precipitates on chilling, versus non-ethanol-containing solutions ([1]; ethanol-containing safingol/lactic acid solutions chilled to 2-8° C., then warmed to room temperature): reduced in quantity and dissolved much more readily
Effect of ethanol on solubility of safingol ([1]; lactic acid/water solutions): substantially increased
